Patent EP4620956A1, “PARP1 INHIBITORS” (Zhejiang Yangli Pharmaceutical Technology Co., Ltd., priority 2022, dated 2024)

Legend:
PARP3 = target: T1, PARP3 (Homo sapiens, UniProt Q9Y6F1); experiment: Inhibition of PARP3 enzyme activity (chemiluminescence); format: biochemical
T1 construct: purchased BPS 80503
T1 sequence (Q9Y6F1 1-533): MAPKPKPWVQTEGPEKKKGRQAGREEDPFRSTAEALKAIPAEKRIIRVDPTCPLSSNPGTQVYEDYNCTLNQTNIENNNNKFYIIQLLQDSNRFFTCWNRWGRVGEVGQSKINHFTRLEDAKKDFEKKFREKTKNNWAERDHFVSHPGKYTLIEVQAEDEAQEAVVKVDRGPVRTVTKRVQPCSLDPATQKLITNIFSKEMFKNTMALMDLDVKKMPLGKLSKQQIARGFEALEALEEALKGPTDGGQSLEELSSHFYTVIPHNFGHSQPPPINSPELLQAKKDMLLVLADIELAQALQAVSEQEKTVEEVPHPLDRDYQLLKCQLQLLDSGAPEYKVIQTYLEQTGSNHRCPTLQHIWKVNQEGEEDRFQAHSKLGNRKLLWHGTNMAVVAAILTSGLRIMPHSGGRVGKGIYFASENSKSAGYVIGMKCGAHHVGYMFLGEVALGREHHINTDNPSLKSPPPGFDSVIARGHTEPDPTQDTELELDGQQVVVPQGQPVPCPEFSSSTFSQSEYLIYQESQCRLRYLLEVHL

PARP1 = target: T2, PARP1 (Homo sapiens, UniProt P09874); experiment: Inhibition of PARP1 enzyme activity (chemiluminescence); format: biochemical
T2 construct: purchased BPS 80501

DLD-1 BRCA2^-/- cells = experiment: Apoptosis in BRCA2-deficient DLD-1 cells (Annexin V/PI flow cytometry); format: cell-based, human; details: 7 days, different concentrations, three experiments, FIG. 4
Experimental: The mechanism of the anti-proliferative effect of the compounds on BRCA-mutated tumours was analysed, and the impact of the compounds on apoptosis in the BRCA2-mutated cell line was analysed by flow cytometry. BRCA2-deficient human colon cancer DLD-1 cells ([…]) were adherently cultured, with the culture conditions of RPMI1640 medium supplemented with 1% foetal bovine serum and 100 µg/mL hygromycin B. Once entering the logarithmic growth phase, the cells were collected and placed in a 6-well plate with 600,000 cells per well. The cells were allowed to adhere to the plate in a 37°C/5% CO2 incubator overnight. Different concentrations of compounds were added to each well and incubated in the incubator. After 7 days, the cells were collected and placed in a 96-well plate. 195 µL of Annexin V-FITC binding buffer was added to each well to resuspend the cells. Then 5 µL of Annexin V-FITC (beyotime, C1052) was added and gently mixed. […] The data acquired from the flow cytometer were analysed using FlowJo software.
For apoptosis analysis, the apoptosis samples were dragged into FlowJo, the raw data were double-clicked to open the graph window, and FSC-A was selected for the X-axis and SSC-A for the Y-axis. […] The "analysed cell population" was double-clicked in the SSC/FSC plot. […]

A549 PARP2-KO cell line = experiment: Cellular PARylation inhibition, high-content imaging, PARP2-KO; format: cell-based; details: PARylation at the cellular level
PARP7 = target: T3, PARP7 (Homo sapiens, UniProt Q7Z3E1); experiment: Inhibition of PARP7 enzyme activity (chemiluminescent assay kit); format: biochemical
T3 construct: purchased BPS 80527
T3 sequence (Q7Z3E1 1-657): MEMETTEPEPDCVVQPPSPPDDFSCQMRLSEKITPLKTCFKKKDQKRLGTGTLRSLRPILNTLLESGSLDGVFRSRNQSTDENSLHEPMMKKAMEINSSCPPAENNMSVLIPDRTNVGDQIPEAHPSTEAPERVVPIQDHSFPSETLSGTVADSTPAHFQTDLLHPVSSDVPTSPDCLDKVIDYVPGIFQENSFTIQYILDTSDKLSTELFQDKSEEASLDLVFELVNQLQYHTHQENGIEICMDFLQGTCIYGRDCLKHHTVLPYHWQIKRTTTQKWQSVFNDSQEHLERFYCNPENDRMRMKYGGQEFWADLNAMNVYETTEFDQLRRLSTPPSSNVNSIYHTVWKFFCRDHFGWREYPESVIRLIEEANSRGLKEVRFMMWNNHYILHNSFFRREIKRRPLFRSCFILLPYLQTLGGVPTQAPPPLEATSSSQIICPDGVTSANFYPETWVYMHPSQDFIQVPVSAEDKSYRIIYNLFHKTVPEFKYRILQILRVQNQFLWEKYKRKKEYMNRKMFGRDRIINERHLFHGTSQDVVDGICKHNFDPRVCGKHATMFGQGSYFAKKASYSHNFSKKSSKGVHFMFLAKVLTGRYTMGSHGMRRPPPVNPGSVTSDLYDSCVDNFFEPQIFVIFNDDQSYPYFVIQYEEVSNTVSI

MDA-MB-436 = experiment: Anti-proliferative activity (CellTiter-Glo, 7 days), MDA-MB-436; format: cell-based, human
PARP11 = target: T4, PARP11 (Homo sapiens, UniProt Q9NR21); experiment: Inhibition of PARP11 enzyme activity (chemiluminescent assay kit); format: biochemical
T4 construct: purchased BPS 80511
T4 sequence (Q9NR21 1-338): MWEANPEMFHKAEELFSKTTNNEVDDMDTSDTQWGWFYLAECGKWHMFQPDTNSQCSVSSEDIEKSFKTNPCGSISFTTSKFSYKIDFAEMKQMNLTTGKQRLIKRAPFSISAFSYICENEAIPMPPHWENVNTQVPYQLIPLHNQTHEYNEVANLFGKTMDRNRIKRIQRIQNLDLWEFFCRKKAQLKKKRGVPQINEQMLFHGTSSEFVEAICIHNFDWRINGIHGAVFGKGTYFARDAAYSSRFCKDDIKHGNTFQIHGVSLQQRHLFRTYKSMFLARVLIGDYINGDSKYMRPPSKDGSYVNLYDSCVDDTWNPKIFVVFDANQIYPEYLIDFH

[1] = ratio relative to the PARP1 enzyme activity

T2 sequence (P09874 whole entry): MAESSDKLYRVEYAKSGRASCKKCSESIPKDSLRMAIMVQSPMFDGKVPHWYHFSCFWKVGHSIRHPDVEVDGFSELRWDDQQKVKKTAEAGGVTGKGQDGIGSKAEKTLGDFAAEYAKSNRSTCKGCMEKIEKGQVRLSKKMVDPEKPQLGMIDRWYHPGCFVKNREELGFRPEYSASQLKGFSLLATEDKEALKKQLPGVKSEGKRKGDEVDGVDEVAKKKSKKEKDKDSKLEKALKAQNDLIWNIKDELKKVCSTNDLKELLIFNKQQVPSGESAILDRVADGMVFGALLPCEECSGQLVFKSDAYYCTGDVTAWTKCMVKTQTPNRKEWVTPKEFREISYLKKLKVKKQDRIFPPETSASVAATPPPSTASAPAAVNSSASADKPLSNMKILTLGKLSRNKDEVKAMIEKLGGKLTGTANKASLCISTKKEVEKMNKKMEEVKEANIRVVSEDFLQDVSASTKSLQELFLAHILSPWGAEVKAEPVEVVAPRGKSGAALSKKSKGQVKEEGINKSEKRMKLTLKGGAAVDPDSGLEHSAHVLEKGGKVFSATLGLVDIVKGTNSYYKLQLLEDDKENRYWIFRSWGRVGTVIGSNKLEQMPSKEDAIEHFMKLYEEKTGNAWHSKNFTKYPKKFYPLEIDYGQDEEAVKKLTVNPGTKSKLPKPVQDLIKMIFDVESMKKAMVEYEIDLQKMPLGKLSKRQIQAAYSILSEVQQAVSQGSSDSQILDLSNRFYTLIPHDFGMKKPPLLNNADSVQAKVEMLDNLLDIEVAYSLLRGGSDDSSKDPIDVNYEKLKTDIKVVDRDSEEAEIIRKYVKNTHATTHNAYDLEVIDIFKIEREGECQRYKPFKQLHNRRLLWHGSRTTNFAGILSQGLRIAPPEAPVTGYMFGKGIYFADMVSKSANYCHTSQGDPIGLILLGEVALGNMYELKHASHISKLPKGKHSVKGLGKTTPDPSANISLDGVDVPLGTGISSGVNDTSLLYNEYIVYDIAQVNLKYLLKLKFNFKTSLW

Compound: [2H]C([2H])([2H])NC(=O)c1ccc(N2CCN(Cc3cnc4c(N)c(CC)c(=O)[nH]c4c3)CC2)c(F)n1 [Example 4, 5-(4-((8-Amino-7-ethyl-6-oxo-5,6-dihydro-1,5-naphthyridin-3-yl)methyl)piperazin-1-yl)-6-fluoro-N-(methyl-d3)picolinamide]
- IC50 (PARP3; enzyme activity): 7.65 µM
- PARP3 multiple vs PARP1 (PARP3; [1]): 15,929
- IC50 (PARP1): 0.48 nM
- PARP1/2 selectivity fold (PARP1; PARP2 vs PARP1): 39 fold
- proportion of apoptotic cells (DLD-1 BRCA2^-/- cells): higher proportion of apoptotic cells at different concentrations than the reference compound AZD5305
- IC50 (A549 PARP2-KO cell line; Homo sapiens, A549, read-out: PARP2-KO IC50): 7.7 nM
- PARP1 KO/PARP2 KO selectivity fold (A549 PARP2-KO cell line): >5222 fold
- IC50 (PARP7; enzyme activity): > 10 µM
- PARP7 multiple vs PARP1 (PARP7; [1]): ∞
- IC50 (MDA-MB-436; Homo sapiens, MDA-MB-436, 168 h, BRCA1-mutated, 7 days, read-out: MDA-MB-436 IC50): 1.93 nM
- BRCA1 mutation/WT selectivity fold (MDA-MB-436; MDA-MB-231 vs MDA-MB-436): >5,181 fold
- IC50 (PARP11; enzyme activity): 422 nM
- PARP11 multiple vs PARP1 (PARP11; [1]): 880
